Earlier results as cited in US20220016119A1, “METHODS AND TREATMENTS FOR ERECTILE DYSFUNCTION” (Record Buck Farms Medical Cannabis, LLC, priority 2018, published 2022).

Details: doses of up to 1500 mg/day

C=C(C)[C@@H]1CCC(C)=C[C@H]1c1c(O)cc(CCCCC)cc1O [Cannabidiol, cannabidiol]
adverse effects in patients: no significant adverse effects
